Converted amounts (≈) assume the structure as drawn. Where two headings read alike, the source gives them in different places. Each block holds one molecule with its values, some of them ahead of it.
Tests used:
[1] = Dissolution of vitamin constituents during preparation of artificial sweat; conditions: for dissolution on addition to the artificial sweat solution: before pH adjustment (pH 3.8 as prepared), 36° C.
Description: (§1) This large initial volume was useful in promoting dissolution of the constituents of the artificial sweat. […] Next, the desired masses of electrolytes and other ionic constituents (see Table 2) were added to the flask. Upon addition of the electrolytes and ionic constituents, the concentrations of chloride, calcium, and iron were measured to assess whether they matched predictions from weighing: 1.67×10^−2 M chloride, 6.93×10^−3 M calcium, and 0.54 ppm iron. Next, organic acids and carbohydrates were added to the solution (see Table 2) and the stability of chloride, calcium, and iron concentrations verified. Amino acids were added (see Table 2) then calcium and iron concentrations verified; chloride ion concentration was measured to determine if it matched the predicted value (1.7×10^−2 M) from weighing electrolytes, ionic constituents, and hydrogen chloride salts of some amino acids. Nitrogenous substances were added (see Table 2) and chloride, calcium, and iron concentrations re-verified.
(§2) Vitamin constituents were added to the solution last (see Table 2).
(§3) The pH of the artificial sweat solution was raised from 3.8 (as prepared) to a final pH of 5.3 by adding 5 M sodium hydroxide dropwise while monitoring using a calibrated pH electrode (InLab 413, Mettler-Toledo, Schwerzenbach, Switzerland) connected to a multi-meter (Seven Multi, Mettler-Toledo). […] The final volume of the solution was then brought up to 1.0 L using 18 megohm-cm distilled and deionized water and the final pH verified. To minimize opportunity for microbial growth, the final sweat solution was filtered through a 0.2 μm pore size filter (Cat. No. SCGVU11RE, Millipore Corp., Billerica, Mass.).

[2] = water, cited from earlier work
physchem = conditions: artificial sweat, 36 °C
Description: as §1, §2, §3

[3] = Long-term stability of artificial sebum by thin-layer chromatography; type: physicochemical; conditions: dry at 32° C., absence of vitamin E
Description: Lipids and formulation of synthetic sebum. Cholesteryl oleate, oleoyl oleate, palmityl palmitate, cholesterol and vitamin E ((±)-α-tocopherol) were purchased from Sigma-Aldrich (St. Louis, Mo.). Squalene and stearic acid were from Acros Organics (Geel, Belgium). Triolein and tristearin were purchased from MP Biochemicals (Solon, Ohio), and oleic acid was from Fisher Scientific (Fairlawn, N.J.). […] All nine lipids were dissolved in a 2:1 co-solvent mixture of chloroform and methanol and divided into two portions, one of which received vitamin E at 0.1% by weight to mimic human sebum content. After combining and mixing, portions of lipid solution were transferred to 16×125 mm glass tubes equipped with Teflon-lined screw caps. One set of tubes with lipid solution was maintained at 4° C. to characterize storage using refrigeration. […]
Thin-layer chromatography. All samples were analyzed using thin layer chromatography. Glass plates (20×20 cm) coated with 0.25-mm-thick silica gel G (Adsorbosil-plus-1; Alltech Associates; Deerfield Ill.) were washed with chloroform:methanol, 2:1, activated in a 110° C. oven, and the adsorbent was scored into 6-mm-wide lanes. […] After two hrs, charring was complete, and the chromatograms were quantitated by photodensitometry. […]

dissolution on addition to the artificial sweat solution [1]: did not dissolve completely
Structure (SMILES): O=C(O)c1cccnc1 [nicotinic acids, Nicotinic Acid (C6H5NO2)]

dissolution on addition to the artificial sweat solution [1]: did not dissolve completely
Structure (SMILES): CC(C)(CO)[C@@H](O)C(=O)NCCC(=O)O [pantothenic, D-Pantothenic Acid (C9H17NO5)]

Structure (SMILES): Cc1cc2nc3c(=O)[nH]c(=O)nc-3n(C[C@H](O)[C@H](O)[C@H](O)COP(=O)(O)O)c2cc1C [riboflavin 5′-(dihydrogen phosphate), reference compound]
solubility ([2]; pH=5.6): 68 mg/mL

solubility (physchem): ≥ 2000 µM
concentration in artificial sweat relative to that predicted by solubility in water ([1]; artificial sweat vs water): two orders of magnitude greater
Structure (SMILES): Cc1cc2nc3c(=O)[nH]c(=O)nc-3n(C[C@H](O)[C@H](O)[C@H](O)CO)c2cc1C [riboflavin, Riboflavin (C17H20N4O6)]
solubility [2]: 0.3 mg/mL (≈ 797 µM)

day by which completely oxidized [3]: ≤ 21 days
Structure (SMILES): CC(C)=CCC/C(C)=C/CC/C(C)=C/CC/C=C(\C)CC/C=C(\C)CCC=C(C)C [squalene]

From US20080311613A1, “ARTIFICIAL SKIN SURFACE FILM LIQUIDS” (The Government of the U.S.A. as represented by the …, priority 2007, published 2008)
